Data published in US20250090576A1, “METHODS FOR TREATING NONTUBERCULOUS MYCOBACTERIA DISEASES” (Microbion Corporation, priority 2022, published 2025).
In brackets after ≈: the same amount, converted by molar mass. Read-outs that look alike come from different tables or passages of the source.

What was measured:
[1] = test system: M. abscessus strain 19977; test: MIC broth dilution, growth by turbidity/OD 595 nm; type: cell-based; settings: for Sensitivity phenotype (R/I/S): 19977; for MIC: Mycobacteroides abscessus
Method: (§1) Mycobacteria strains were used to determine MICs of BisEDT and amikacin. Strains included cystic fibrosis patient isolates from National Jewish Hospital. A range of high dose to low dose of antibiotics was used to determine bacteria susceptibility. M. avium strain 104, M. avium strain 3388, and CF patient strain DNA00133 were grown to log phase (7 days) while M. abscessus strain 19977, CF patient strain DNA00703, and CF patient strain DNA01715 achieved log phase (4 days) on 7H10 middlebrook media plates supplemented with 10% OADC (Oleic acid, Albumin, Dextrose, Catalase). […] For BisEDT, two types of compound physical states were tested. First, BisEDT was solubilized in DMSO (furthermore labeled soluble BisEDT). Second, BisEDT was made in suspension to mimic in vivo studies (furthermore labeled insoluble BisEDT). […] Control tubes containing no antibiotics were also included for each antibiotic tested. Inoculums of […] bacteria for each strain was measured with optical density (O.D.) at 595 nm. 10 μl of these inoculums were added to each antibiotic tube and incubated in a shaking incubator at 37° C. and 200 rpm. Slow growing stains were measured for growth after 10 days incubation while fast growing strains were incubated for 5 days. After incubation, 100 μl from each tube was pulled and placed in a 96-well plate for O.D. reading. Turbidity determined sensitive, intermediate, or resistant bacteria.

[2] = test system: M. avium strain 104 (MAH 104); test: MIC broth dilution, growth by turbidity/OD 595 nm; type: cell-based; settings: for Sensitivity phenotype (R/I/S): MAH 104; for MIC: Mycobacterium avium
Method: as §1

[3] = test system: M. avium strain 3388 (MAH 3388); test: MIC broth dilution, growth by turbidity/OD 595 nm; type: cell-based; settings: for Sensitivity phenotype (R/I/S): MAH 3388; for MIC: Mycobacterium avium
Method: as §1

[4] = test system: CF patient strain DNA00133; test: MIC broth dilution, growth by turbidity/OD 595 nm; type: cell-based, M. avium; settings: for MIC: Mycobacterium avium
Method: as §1

M. abscessus MABS4 = test: MIC (Table 8); type: cell-based; settings: Mycobacteroides abscessus
M. abscessus MABS7 = test: MIC (Table 8); type: cell-based; settings: Mycobacteroides abscessus
[5] = test system: M. abscessus MABS1 biofilm; test: MBEC assay (minimum biofilm eradication concentration); type: cell-based; settings: 18 h challenge
Text: (§2) In this study the MBEC assay was followed as described in the Innovotech Procedural Manual, version 2.1 with minor modifications to assess the antibiofilm activity of the antimicrobial compounds under investigation. The MBEC value refers to the Minimum Biofilm Eradication Concentration of each antimicrobial for each strain. The MBEC value is defined as the minimum antibiotic concentration where the optical density (OD) value at recovery is less than 10% of the control OD value and there is no growth observed with visual examination of the wells.
(§3) Step 1: Inoculation. For resuscitation, all strains were streaked on TSA plates, except for the mycobacteria which were streaked on 7H10 media, from the frozen stocks, and grew overnight at 37° C. (Table 6). From the plate, one colony was picked for inoculation in organism specific medium (OSM) and grown in a shaker incubator at 37° C. at 225 RPM until mid-log phase (OD 0.2-0.8). At mid log phase the culture was diluted in OSM medium (Table 6) to an OD of 0.05. 150 μL of it were aliquoted in each corresponding well in a 96-well MBEC plate (inoculation plate). Subsequently, the MBEC plates were incubated static at 37° C. for the appropriate time for each species (Table 7). During incubation, biofilm formed on the pegs.
(§4) Step 2: Challenge. Following incubation, the peg lid with the biofilm was washed twice in PBS and placed on a second 96-well plate with 200 μl of antibiotic dilutions (challenge plate). The challenge plate was then incubated at 37° C. for 18 h to allow exposure of the biofilm to antibiotics.
(§5) Step 3: Recovery. In the final step, the peg lid (with the biofilm after treatment with the antibiotics) was washed again twice in PBS and placed on a third 96-well plate (recovery plate) with 200 μl growth medium in each well to allow growth of any bacterial cells resistant to antibiotics at any concentration. The recovery of resistant cells was assessed by an end-point measurement of the optical density at 600 nm (OD600) for each well with a plate reader (FIG. 4).

[6] = test system: M. abscessus MABS11 biofilm; test: as above; type: cell-based; settings: 18 h challenge
Text: as §2, §3, §4, §5

[7] = test system: M. abscessus MABS2 biofilm; test: as above; type: cell-based; settings: 18 h challenge
Text: as §2, §3, §4, §5

[8] = test system: M. abscessus MABS4 biofilm; test: as above; type: cell-based; settings: 18 h challenge
Text: as §2, §3, §4, §5

[9] = test system: M. abscessus MABS7 biofilm; test: as above; type: cell-based; settings: 18 h challenge
Text: as §2, §3, §4, §5

[10] = test system: M. abscessus MABS9 biofilm; test: as above; type: cell-based; settings: 18 h challenge
Text: as §2, §3, §4, §5

## NCC[C@H](O)C(=O)N[C@@H]1C[C@H](N)[C@@H](O[C@H]2O[C@H](CN)[C@@H](O)[C@H](O)[C@H]2O)[C@H](O)[C@H]1O[C@H]1O[C@H](CO)[C@@H](O)[C@H](N)[C@H]1O [amikacin]
[1]; 1 μg/mL
  Sensitivity phenotype (R/I/S): R
[1]; 2 μg/mL
  Sensitivity phenotype (R/I/S): R
[1]; 4 μg/mL
  Sensitivity phenotype (R/I/S): R
[1]; 8 μg/mL
  Sensitivity phenotype (R/I/S): R
[1]; 16 μg/mL
  Sensitivity phenotype (R/I/S): R
[1]; 32 μg/mL
  Sensitivity phenotype (R/I/S): S
[1]; 64 μg/mL
  Sensitivity phenotype (R/I/S): S
[1]; 128 μg/mL
  Sensitivity phenotype (R/I/S): S
[1]; M. abscessus strain 19977 (Table 4), read-out: MIC determined for the strain, used for treatment of infected macrophages
  MIC: 32 µg/mL (≈ 54.6 µM)
[1]; M. abscessus strain 19977, read-out: MIC
  MIC: 32 µg/mL (≈ 54.6 µM)
[2]; 1 μg/mL
  Sensitivity phenotype (R/I/S): R
[2]; 2 μg/mL
  Sensitivity phenotype (R/I/S): R
[2]; 4 μg/mL
  Sensitivity phenotype (R/I/S): R
[2]; 8 μg/mL
  Sensitivity phenotype (R/I/S): S
[2]; 16 μg/mL
  Sensitivity phenotype (R/I/S): S
[2]; 32 μg/mL
  Sensitivity phenotype (R/I/S): S
[2]; 64 μg/mL
  Sensitivity phenotype (R/I/S): S
[2]; 128 μg/mL
  Sensitivity phenotype (R/I/S): S
[2]; M. avium strain 104 (Table 3), read-out: MIC determined for the strain, used for treatment of infected macrophages
  MIC: 8 µg/mL (≈ 13.7 µM)
[2]; M. avium strain 104, read-out: MIC
  MIC: 8 µg/mL (≈ 13.7 µM)
[3]; 1 μg/mL
  Sensitivity phenotype (R/I/S): R
[3]; 2 μg/mL
  Sensitivity phenotype (R/I/S): R
[3]; 4 μg/mL
  Sensitivity phenotype (R/I/S): I
[3]; 8 μg/mL
  Sensitivity phenotype (R/I/S): S
[3]; 16 μg/mL
  Sensitivity phenotype (R/I/S): S
[3]; 32 μg/mL
  Sensitivity phenotype (R/I/S): S
[3]; 64 μg/mL
  Sensitivity phenotype (R/I/S): S
[3]; 128 μg/mL
  Sensitivity phenotype (R/I/S): S
[3]; M. avium strain 3388 (Table 3), read-out: MIC determined for the strain, used for treatment of infected macrophages
  MIC: 8 µg/mL (≈ 13.7 µM)
[3]; M. avium strain 3388, read-out: MIC
  MIC: 8 µg/mL (≈ 13.7 µM)
[4]; 1 μg/mL
  Sensitivity phenotype (R/I/S): R
[4]; 2 μg/mL
  Sensitivity phenotype (R/I/S): R
[4]; 4 μg/mL
  Sensitivity phenotype (R/I/S): R
[4]; 8 μg/mL
  Sensitivity phenotype (R/I/S): R
[4]; 16 μg/mL
  Sensitivity phenotype (R/I/S): R
[4]; 32 μg/mL
  Sensitivity phenotype (R/I/S): R
[4]; 64 μg/mL
  Sensitivity phenotype (R/I/S): R
[4]; 128 μg/mL
  Sensitivity phenotype (R/I/S): R
[4]
  MIC: > 128 µg/mL
[4]; M. avium strain 1333 (Table 3), read-out: MIC determined for the strain, used for treatment of infected macrophages
  MIC: 8 µg/mL (≈ 13.7 µM)
M. abscessus MABS4
  MIC: 4 µg/mL (≈ 6.83 µM)
M. abscessus MABS7
  MIC: 2 µg/mL (≈ 3.42 µM)
[5]
  MBEC: >128 µg/mL
[6]
  MBEC: >16 µg/mL
[7]
  MBEC: >512 µg/mL
[8]
  MBEC: 8 µg/mL
[8]; listed as Amikacin
  MBEC: <8 µg/mL
[9]
  MBEC: >16 µg/mL
[10]
  MBEC: >64 µg/mL
